# ChEMBL document CHEMBL1201862, “PubChem BioAssay data set” (2004)
#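 Protocol summary: plate cells (96-well), add compound at 5 concentrations, incubate 48 h, interpolate endpoints linearly. GI50: concentration for 50% inhibition of growth.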 The source made the active and inactive calls. Rule as the data show it: active = GI50 up to about 1.1 µM and inactive = higher.
# Legend:
# Experiment in all cases: NCI tumour cell line growth inhibition, 48 h
# SK-MEL-2 = system: SK-MEL-2
# NCI-H23 = system: NCI-H23
# 786-0 = system: 786-0
# HCC 2998 = system: HCC 2998
# SN12C = system: SN12C
# UACC-62 = system: UACC-62
# U-251 = system: U-251
# ACHN = system: ACHN
# HCT-116 = system: HCT-116
# OVCAR-3 = system: OVCAR-3
# MCF7 = system: MCF7
# A498 = system: A498
# HCT-15 = system: HCT-15
# HT-29 = system: HT-29
# SR = system: SR
# CAKI-1 = system: CAKI-1
# CCRF-CEM = system: CCRF-CEM
# NCI-H226 = system: NCI-H226
# K562 = system: K562
# TK-10 = system: TK-10
# OVCAR-5 = system: OVCAR-5
# M14 = system: M14
# Hs-578T = system: Hs-578T
# SF-295 = system: SF-295
# LOX IMVI = system: LOX IMVI
# SF-268 = system: SF-268
# A549 = system: A549
# UO-31 = system: UO-31
# SNB-75 = system: SNB-75
# MDA-MB-231 = system: MDA-MB-231
# SK-MEL-5 = system: SK-MEL-5
# MDA-MB-435 = system: MDA-MB-435
# SW-620 = system: SW-620
# T47D = system: T47D
# NCI-H460 = system: NCI-H460
# IGROV-1 = system: IGROV-1
# SNB-19 = system: SNB-19
# MDA-N = system: MDA-N
# COLO 205 = system: COLO 205
# KM12 = system: KM12
# OVCAR-8 = system: OVCAR-8
# BT-549 = system: BT-549
# RPMI-8226 = system: RPMI-8226
# DU-145 = system: DU-145
# SK-OV-3 = system: SK-OV-3
# HOP-92 = system: HOP-92
# OVCAR-4 = system: OVCAR-4
# PC-3 = system: PC-3
# EKVX = system: EKVX
# HOP-62 = system: HOP-62
# UACC-257 = system: UACC-257
# NCI/ADR-RES = system: NCI/ADR-RES
# SK-MEL-28 = system: SK-MEL-28
# SF-539 = system: SF-539
# Malme-3M = system: Malme-3M
# NCI-H522 = system: NCI-H522
# MOLT-4 = system: MOLT-4
# RXF 393 = system: RXF 393
structure (smiles),measurement,setting,value
COc1ccc(-n2cnc3c(NC(Cc4ccccc4)C(=O)O)ncnc32)cc1 (stereo not given),GI50,SK-MEL-2,> 100 µM (inactive)
same,GI50,NCI-H23,> 100 µM (inactive)
same,GI50,786-0,> 100 µM (inactive)
same,GI50,HCC 2998,> 100 µM (inactive)
same,GI50,SN12C,> 100 µM (inactive)
same,GI50,UACC-62,> 100 µM (inactive)
same,GI50,U-251,> 100 µM (inactive)
same,GI50,ACHN,> 100 µM (inactive)
same,GI50,HCT-116,> 100 µM (inactive)
same,GI50,OVCAR-3,> 100 µM (inactive)
same,GI50,MCF7,> 100 µM (inactive)
same,GI50,A498,> 100 µM (inactive)
same,GI50,HCT-15,> 100 µM
same,GI50,HT-29,> 100 µM (inactive)
same,GI50,SR,> 100 µM (inactive)
same,GI50,CAKI-1,> 100 µM (inactive)
same,GI50,CCRF-CEM,> 100 µM (inactive)
same,GI50,NCI-H226,> 100 µM (inactive)
same,GI50,K562,> 100 µM (inactive)
same,GI50,TK-10,> 100 µM (inactive)
same,GI50,OVCAR-5,> 100 µM (inactive)
same,GI50,M14,> 100 µM (inactive)
same,GI50,Hs-578T,> 100 µM (inactive)
same,GI50,SF-295,> 100 µM (inactive)
same,GI50,LOX IMVI,> 100 µM (inactive)
same,GI50,SF-268,> 100 µM (inactive)
same,GI50,A549,> 100 µM (inactive)
same,GI50,UO-31,> 100 µM (inactive)
same,GI50,SNB-75,> 100 µM (inactive)
same,GI50,MDA-MB-231,> 100 µM (inactive)
same,GI50,SK-MEL-5,> 100 µM (inactive)
same,GI50,MDA-MB-435,> 100 µM (inactive)
same,GI50,SW-620,> 100 µM (inactive)
same,GI50,T47D,92.7 µM (inactive)
same,GI50,NCI-H460,> 100 µM (inactive)
same,GI50,IGROV-1,> 100 µM (inactive)
same,GI50,SNB-19,> 10 µM (inactive)
same,GI50,MDA-N,> 100 µM (inactive)
same,GI50,COLO 205,> 100 µM (inactive)
same,GI50,KM12,> 100 µM (inactive)
same,GI50,OVCAR-8,> 100 µM (inactive)
same,GI50,BT-549,> 100 µM (inactive)
same,GI50,RPMI-8226,> 100 µM (inactive)
same,GI50,DU-145,> 100 µM (inactive)
same,GI50,SK-OV-3,> 100 µM (inactive)
same,GI50,HOP-92,> 100 µM (inactive)
same,GI50,OVCAR-4,> 100 µM (inactive)
same,GI50,PC-3,> 100 µM (inactive)
same,GI50,EKVX,> 100 µM (inactive)
same,GI50,HOP-62,> 100 µM (inactive)
same,GI50,UACC-257,> 100 µM (inactive)
same,GI50,NCI/ADR-RES,> 100 µM (inactive)
same,GI50,SK-MEL-28,> 100 µM (inactive)
NCCCCCCn1c(-c2ccc(Br)cc2)cs/c1=N\c1ccccc1,GI50,SK-MEL-2,18.6 µM (inactive)
same,GI50,NCI-H23,14.7 µM (inactive)
same,GI50,SF-539,13.1 µM (inactive)
same,GI50,786-0,10.2 µM (inactive)
same,GI50,HCC 2998,3.75 µM (inactive)
same,GI50,SN12C,13.7 µM (inactive)
same,GI50,UACC-62,17.4 µM (inactive)
same,GI50,U-251,7.89 µM (inactive)
same,GI50,ACHN,14.6 µM (inactive)
same,GI50,HCT-116,4.09 µM (inactive)
same,GI50,OVCAR-3,10.9 µM (inactive)
same,GI50,MCF7,5.21 µM (inactive)
same,GI50,A498,17.9 µM (inactive)
same,GI50,HCT-15,7.74 µM
same,GI50,HT-29,5.9 µM (inactive)
same,GI50,SR,3.51 µM (inactive)
same,GI50,CAKI-1,14.6 µM (inactive)
same,GI50,CCRF-CEM,6.9 µM (inactive)
same,GI50,NCI-H226,16.9 µM (inactive)
same,GI50,K562,2.01 µM (inactive)
same,GI50,Malme-3M,9.35 µM (inactive)
same,GI50,TK-10,13.6 µM (inactive)
same,GI50,OVCAR-5,12.2 µM (inactive)
same,GI50,NCI-H522,10.5 µM (inactive)
same,GI50,M14,1.44 µM (inactive)
same,GI50,Hs-578T,13.1 µM (inactive)
same,GI50,SF-295,16 µM (inactive)
same,GI50,LOX IMVI,2.53 µM (inactive)
same,GI50,SF-268,13.9 µM (inactive)
same,GI50,A549,12.5 µM (inactive)
same,GI50,UO-31,10.4 µM (inactive)
same,GI50,SNB-75,11.9 µM (inactive)
same,GI50,MDA-MB-231,14.4 µM (inactive)
same,GI50,MOLT-4,3.83 µM (inactive)
same,GI50,SK-MEL-5,10.1 µM (inactive)
same,GI50,MDA-MB-435,10.8 µM (inactive)
same,GI50,SW-620,4.28 µM (inactive)
same,GI50,T47D,5.08 µM (inactive)
same,GI50,NCI-H460,13.1 µM (inactive)
same,GI50,RXF 393,10.9 µM (inactive)
same,GI50,SNB-19,14.9 µM (inactive)
same,GI50,MDA-N,6.28 µM (inactive)
same,GI50,COLO 205,1.79 µM (inactive)
same,GI50,KM12,5.74 µM (inactive)
same,GI50,OVCAR-8,11.9 µM (inactive)
same,GI50,BT-549,13.8 µM (inactive)
same,GI50,RPMI-8226,3.33 µM (inactive)
same,GI50,DU-145,13.5 µM (inactive)
same,GI50,SK-OV-3,17.2 µM (inactive)
same,GI50,HOP-92,12.7 µM (inactive)
same,GI50,OVCAR-4,12.7 µM (inactive)
same,GI50,PC-3,5.86 µM (inactive)
same,GI50,EKVX,13.8 µM (inactive)
same,GI50,HOP-62,16.8 µM (inactive)
same,GI50,UACC-257,15.2 µM (inactive)
same,GI50,NCI/ADR-RES,12.2 µM (inactive)
same,GI50,SK-MEL-28,12.7 µM (inactive)
